Values quoted from earlier work in patent publication US20140194400A1, “Nasal Pharmaceutical Formulation” (Meda Pharma GmbH & Co., Kg, priority 2011, published 2014).

In the case of `C[C@@H]1C[C@H]2[C@@H]3C[C@H](F)C4=CC(=O)C=C[C@]4(C)[C@@]3(F)[C@@H](O)C[C@]2(C)[C@@]1(O)C(=O)SCF` [fluticasone], the oral absorption is listed as “about 1%”.
